Experimental data reported in US12280060B2, “Methods of treating cancer using neuronal activity inhibiting agents” (Washington University, priority 2021, dated 2025).
Entries after “also recorded” stand apart in the source; their conditions may differ.

How the values were obtained:
neurofibromas = conditions: cited from earlier work
Nf1+/neo DRG neurons = format: cell-based, mouse
Col1a2 [1] = format: cell-based, mouse
midkine [2] = format: cell-based, mouse
RAS = format: cell-based, mouse
[3] = system: Nf1+/neo hippocampal neurons; format: cell-based, mouse
Nf1+/neo RGC neurons = format: cell-based, mouse
midkine [4] = format: cell-based, mouse; remark: listed apart in the source
[5] = system: Nf1f/neo; hGFAP-Cre (Nf1-OPG) mice; test: In vivo Nf1-OPG (optic pathway glioma) progression; design: species or system mouse; conditions: for optic nerve proliferation (% Ki67+ cells), fold decrease: mouse, in vivo
[6] = system: NF1-pNFs in athymic nude mice; test: In vivo pNF progression (Nf1-/- DRG-NSCs implanted in sciatic nerve); design: species or system mouse
[7] = system: Nf1+/neo and Nf1-OPG mice; test: In vivo treatment: Mdk/midkine, Nlgn3, Adam10 expression in retinae and optic nerves; design: species or system mouse; conditions: for effect on midkine expression in the RGC layer of retinae: 12-week-old Nf1-OPG mice, LTR or lovastatin in vivo; for effect on Nlgn3 RNA expression in vivo: retinae / optic nerves of Nf1+/neo or Nf1-OPG mice
Experimental: Supplementary Table 2) and TaqMan Fast Advanced Master Mix (Applied Biosystems) according to the manufacturer's instructions. All reactions were performed using the Bio-Rad CFX96 Real-Time PCR system equipped with Bio-Rad CFX Manager 3.1 software. Gene expression levels of technical replicates were estimated by ΔΔCt method using GAPDH or Gapdh (see e.g., TABLE 2) as reference genes. In total, 17 Nf1^flox/neo; GFAP-Cre (Nf1-OPG) mice were intraperitoneally administered vehicle (saline in 1% methylcellulose; n=9) or 25 mg/Kg body weight lamotrigine (Selleckchem; n=8) from four to six weeks of age, three times a week. The mice were then aged to 12 weeks for optic nerve and RGC analysis. […] The mice were analyzed at 12 weeks of age. […] These mice were analyzed at 24 weeks of age. […] These mice were analyzed at 12 weeks of age. For pNF analyses, Nf1^−/− DRG-NSCs were implanted in sciatic nerves of 8-week-old athymic nude mice as previously described. Briefly, the mice underwent surgery to create a pocket by displacing the quadriceps muscle and exposing their sciatic nerve. In all, 1×10^6 Nf1^−/− DRG-NSCs were implanted in the pocket around the sciatic nerve, such that the cells could be in direct contact with the nerve before the muscle and skin were sutured. Following recovery from the surgery, the mice were intraperitoneally administered vehicle (saline in 1% methylcellulose; n=5) or 25 mg/kg body weight lamotrigine (Selleckchem; n=5) three times a week for 6 weeks prior to histological analysis.

Nf1-mutant neurons = test: Excitability of Nf1-mutant neurons; format: cell-based
Experimental: (§1) Nf1-mutant neurons were treated with the antiepileptic drug rufinamide. Treatment with rufinamide reduced Midkine expression (see e.g., FIG. 47) and neuronal excitability (see e.g., FIG. 48).

Midkine [8] = test: Mdk (Midkine transcript) levels in Nf1-mutant neurons; format: cell-based
Experimental: as §1

COL1A2 [9] = test: COL1A2 RNA expression in human shNF1 Schwann cells; format: cell-based; conditions: COL1A2 treatment
Col1a2 [10] = test: COL1A2 RNA expression in mouse Nf1-/- DRG-NSCs; format: cell-based; conditions: COL1A2 treatment
[11] = system: human shNF1 Schwann cells; test: Human shNF1 Schwann cell proliferation (Ki67+); format: cell-based; conditions: shNF1 SCs
Nf1-/- DRG-NSCs = test: Nf1-/- DRG-NSC proliferation (Ki67+); format: cell-based, mouse
[12] = system: WT and Nf1+/1809 RGC neurons; format: cell-based, mouse
[13] = Nf1-OPG mice, LTR 25 mg/kg/day intraperitoneally, vs vehicle
[14] = Nf1-OPG mice, lamotrigine intraperitoneal, 3 months of age, vs vehicle
[15] = 25 mg/kg intraperitoneal three times a week for 6 weeks
[16] = 25 mg/kg intraperitoneal three times a week for 6 weeks, listed as LTR

Molecule: Cc1ccc(=O)n(-c2ccccc2)c1 [Pirfenidone]
- efficacy in human clinical trials (neurofibromas): no efficacy

Molecule: NC1=N[C@H](O)[C@H]2[C@H]3O[C@]4(O)O[C@@H]([C@@H](O)[C@@]2(N1)[C@@H]4O)[C@]3(O)CO [TTX, tetrodotoxin]
- effect on DRG neuron AP firing rate / neuronal activity (Nf1+/neo DRG neurons): reduce
- Col1a2 secretion / expression, fold reduction (Col1a2 [1]): 3.6 fold
- reduction of Col1a2 secretion (Col1a2 [1]): 73%
- effect on midkine secretion / expression (midkine [2]): reduced
- midkine levels, fold decrease (midkine [2]): 1.9 fold
- effect on RAS activity (RAS-GTP) (RAS): reduced
- effect on AP firing rates [3]: reduced
- effect on AP firing rate / RGC activity (Nf1+/neo RGC neurons): reduced
- neuronal activity (AP firing rate), fold decrease (Nf1+/neo RGC neurons): > 80 fold
- effect on midkine expression / secretion (midkine [4]): reduced

Molecule: Nc1nnc(-c2cccc(Cl)c2Cl)c(N)n1 [lamotrigine]
- effect on DRG neuron AP firing rate / neuronal activity (Nf1+/neo DRG neurons): reduce
- effect on CD3+ cells in optic nerves [5, 13]: reduced
- effect on Iba1+ cells in optic nerves [5, 13]: reduced
- effect on Ki67+ cells in optic nerves [5, 13]: reduced
- effect on OPG development ([5]; Nf1-OPG mice, at 3 months of age): reduced
- effect on optic nerve volumes ([5]; Nf1-OPG mice, lamotrigine intraperitoneal, 3 months of age): did not decrease
- T-cell (CD3+ cells) content, fold decrease [5, 14]: 1.6 fold
- microglia (% Iba1+ cells) content, fold decrease [5, 14]: 1.7 fold
- optic nerve volumes relative to WT controls, fold increased ([5]; lamotrigine-treated Nf1-OPG mice): 1.5 fold
- optic nerve proliferation (% Ki67+ cells), fold decrease [5]: 1.5 fold
- optic nerve proliferation (% Ki67+ cells), fold decrease ([5]; ip): 5.7 fold
- optic nerve proliferation (% Ki67+ cells), fold decrease ([5]; po, 10 mg/kg/day): 4 fold
- microglia (% Iba1+ cells) content, fold decrease ([5]; treatment from 4-8 weeks, 6 month-old Nf1-OPG mice, vs vehicle): 1.4 fold
- Col1a2 secretion / expression, fold reduction (Col1a2 [1]): 1.8 fold
- reduction of Col1a2 secretion (Col1a2 [1]): 47%
- effect on midkine secretion / expression (midkine [2]): reduced
- midkine levels, fold decrease (midkine [2]): 2.2 fold
- effect on RAS activity (RAS-GTP) (RAS): reduced
- effect on AP firing rates [3]: reduced
- effect on Col1a2 production / immunoreactivity within the tumors [6, 15]: reduced
- effect on neuronal histology (H&E) [6, 15]: partly restored
- effect on pNF progression in vivo [6, 15]: decreases
- effect on pNF size [6, 15]: reduced
- effect on Col1a2 production / immunoreactivity within the tumors [6, 16]: decreases
- effect on neuronal histology (H&E) [6, 16]: partly restores
- effect on pNF size [6, 16]: reduces
- effect on proliferation (Ki67+ cells) within the tumors ([6]; mouse, in vivo): reduces
- effect on midkine expression in the RGC layer of retinae [7]: reduced
- effect on Mdk transcript relative expression in retinae ([7]; Nf1+/neo mice, LTR in vivo): decreased
- Mdk RNA and protein levels in retinae, fold decrease ([7]; Nf1+/neo retinae, lamotrigine in vivo, relative to vehicle): 1.9-2.3 fold
- Mdk levels in optic nerves, fold decrease ([7]; optic nerves, lamotrigine in vivo, relative to vehicle): 1.7-2 fold
- effect on Adam10 RNA expression in vivo ([7]; retinae / optic nerves of 12 week-old Nf1+/neo or Nf1-OPG mice, lamotrigine in vivo): did not change; also recorded: unchanged
- effect on Nlgn3 RNA expression in vivo ([7]; lamotrigine in vivo): did not change
- effect on Nlgn3 RNA expression in vivo ([7]; lamotrigine in vivo, listed as LTR): unaltered
- effect on AP firing rate / RGC activity (Nf1+/neo RGC neurons): reduced
- firing rates, % decrease (Nf1+/neo RGC neurons): > 80%
- effect on midkine expression / secretion (midkine [4]): reduced

Molecule: CC[C@H](C)C(=O)O[C@H]1C[C@@H](C)C=C2C=C[C@H](C)[C@H](CC[C@@H]3C[C@@H](O)CC(=O)O3)[C@H]21 [lovastatin]
- effect on midkine expression in the RGC layer of retinae [7]: decreased; also recorded: reduced

Molecule: NC(=O)c1cn(Cc2c(F)cccc2F)nn1 [rufinamide]
- effect on neuronal excitability (Nf1-mutant neurons): reduces
- effect on Mdk (Midkine transcript) levels / Midkine expression (Midkine [8]): reduces

Molecule: COL1A2: collagen-1A2; neurofibroma mitogen produced by peripheral neurons, applied to Schwann cells and DRG-NSCs
- effect on COL1A2 RNA expression (COL1A2 [9]): increased
- effect on COL1A2 RNA expression (Col1a2 [10]): increased
- proliferation, fold increase in Ki67+ cells ([11]; COL1A2 12.5 μg/mL): 2.5-2.9 fold
- proliferation, fold increase in Ki67+ cells (Nf1-/- DRG-NSCs; COL1A2 12.5 μg/mL): 2.5-2.9 fold

Molecule: ZD7288
- effect on Adam10 transcript expression [12]: did not alter
- effect on Nlgn3 transcript expression [12]: did not alter
- DRG Col1a2 secretion, fold increase (Col1a2 [1]): 2-2.8 fold
- effect on Col1a2 secretion (Col1a2 [1]): increases
- RGC neuron midkine production, fold increase (midkine [2]): 14-15 fold
- effect on midkine production (midkine [2]): increased
- effect on midkine expression / secretion (midkine [4]): increases

Molecule: collagenase
- effect on the increase in proliferation conferred by NF1-mutant sensory neuron CM or COL1A2 ([11]; collagenase): completely abrogated
- effect on the increase in proliferation conferred by NF1-mutant sensory neuron CM or COL1A2 (Nf1-/- DRG-NSCs; collagenase): completely abrogated
